Data set [1] relates to glioblastoma multiforme (GBM). Particulars: cited from earlier work; for median overall survival: GBM patients receiving TMZ.
The test system of a further data set is U373.eGFP.FFLuc cells. As to the kind of experiment: Coculture of U373.eGFP.FFLuc tumor cells with T cells with or without TMZ, tumor killing by fluorescence microscopy. It is filed as cell-based. Particulars: TMZ with non-transduced (NT) T cells. As to the method: Tumor killing was evaluated by fluorescence microscopy.
Both TMZ and HER2.CAR T cells have anti-GBM activity on their own; however, it is unknown whether combining the agents provides additional benefit.

A further data set relates to HER2.CAR T cells. The data set can be described thus: Expansion of HER2.CAR T cells with IL-2 under repeated TMZ treatment (cell counts every three days). The class given is cell-based. Particulars: 100 μM TMZ, retreated every three days, 100 U/ml IL-2; n=4 donors; p<0.05.

Molecules are shown by their SMILES. Read-outs that look alike come from different tables or passages of the source.

Description for HER2.CAR T cells: 1×10^6 HER2.CAR T cells were plated on day 1 with 100 U/ml of IL-2 and treated with 100 μM TMZ. Every three days, the T cells were counted, given fresh IL-2, and retreated with TMZ.
To do this, 1×10^6 HER2.CAR T cells were plated with 100 U/ml of IL-2 and treated with 100 μM TMZ (day 1). Every three days, the T cells were counted, given fresh IL-2, and re-treated with TMZ.

Turning to `Cn1nnc2c(C(N)=O)ncn2c1=O` [TMZ, 3-methyl-4-oxo-3H,4H-imidazo[4,3-d][1,2,3,5]tetrazine-8-carboxamide], the median overall survival in data set [1] (methylated MGMT promoters) is reported as 21.7 months; in data set [1] (unmethylated MGMT promoters), 12.7 months. Further, the overall survival entry in data set [1] (phase III trial, TMZ with radiation therapy vs. radiotherapy alone, GBM patients) is on record as “significantly improve the overall survival”. Also, the “antitumor activity / tumor killing” value in the data set with U373.eGFP.FFLuc cells is given as “limited antitumor activity”. In addition, the “effect of TMZ on T-cell expansion” value in the data set with HER2.CAR T cells is on record as “effectively prevented T-cell expansion”.

The values are drawn from patent publication US20160024175A1, “CHEMOTHERAPY-RESISTANT IMMUNE CELLS” (priority 2013, published 2016).
